Reference: patent US11492671B2, “MiRNAs for treatment and in vitro diagnosis of drug resistant tumors” (ISTITUTI FISIOTERAPICI OSPITALIERI, priority 2018, dated 2022)

Experiments:
[1] = system: VEGFA in WM266^R melanoma cells; test: Western blot analysis of VEGFA protein levels after miRNA transfection; type: cell-based, human; conditions: miRNA overexpressed in WM266^R cells vs Scrambled miRNA; FIG. 26
Source text: FIG. 26 WM266^R melanoma cells transfected with Scrambled miRNA or miR-199b-5p were harvested and subjected to Western blot analysis to detect VEGFA and GAPDH protein levels.
Antibodies against VEGFA and GAPDH were obtained from Santa Cruz Biotechnology. Vemurafenib and trametinib were obtained from Selleck Chemicals. TaqMan probes for GAPDH, VEGF, BCL2, miR-4443, miR-4488, miR-204-5p, miR-199b-5p, miR-630, miR-1234, is-3676 (previously named miR-3676-3p), miR-145-5p and RNU48 were purchased from Applied Biosystems. Melanoma cells were lysed with RIPA buffer; 50 μg of total protein were resolved under reducing conditions by 8% SDS-PAGE and transferred to reinforced nitrocellulose (BA-S 83, Schleider and Schuell, Keene, N.H., USA). The membranes were blocked with 5% non fat dry milk in PBS 0.1% Tween 20, and incubated with the different primary antibodies. The membranes were rehydrated and probed with anti-GAPDH, to estimate the protein equal loading. Densitometric analysis was performed using Quantity One Program (Bio-Rad Laboratories GmbH) and results were expressed as mean values from three independent experiments.
VEGF increased expression and release members of miR-199 family were considered (25). […] Therefore, miR-199b-5p was overexpressed in WM266^R cells.

[2] = system: drug sensitive and resistant M14 cells; test: In vitro short term colony formation assay; type: cell-based, human; conditions: overexpression in BRAFi drug resistant cells (M14^R); FIG. 15
Description: Viability of cells was examined with 3-(4,5-dimethylthiazol-2-yl)-2,5-diphenyltetrazolium bromide Cell Titer 96 AQueous One Solution Cell Proliferation Assay (Promega), according to the manufacturer's protocol. The plates were analyzed in a Multilabel Counter (Bio-Rad Laboratories). Cell viability was also determined by crystal violet staining. Briefly, the cells were stained for 20 min at room temperature with staining solution (0.5% crystal violet in 30% methanol), washed four times with water and then dried. Cells were then dissolved in a Methanol/SDS solution and the adsorbance (595 nm) was read using a microplate ELISA reader. […]

[3] = system: sensitive M14 and WM266 melanoma cells; test: Apoptosis induction measured by Caspase 3/7 activation after transient transfection, with or without a BRAFi; type: cell-based, human; conditions: enforced expression by transient transfection, FIG. 13; for BRAFi induction of apoptosis, measured by Caspase 3/7 activation: in the presence of a BRAFi
Description: (§1) Next, the biological consequences of overexpressing or inhibiting the expression of the four selected miRNAs above miR-4443, miR-4488, miR-204-5p and miR-199b-5p were assessed by transient transfections in sensitive M14 and WM266 melanoma cells in the presence or not of a BRAFi in order to evaluate melanoma cell proliferation and apoptosis induction.

[4] = system: sensitive M14 and WM266 melanoma cells; test: Cell viability / proliferation after transient transfection of miRNAs, with or without a BRAFi; type: cell-based, human; conditions: enforced expression by transient transfection, FIG. 12; for effect of BRAFi on cell viability: in the presence of a BRAFi
Description: Viability of cells was examined with 3-(4,5-dimethylthiazol-2-yl)-2,5-diphenyltetrazolium bromide Cell Titer 96 AQueous One Solution Cell Proliferation Assay (Promega), according to the manufacturer's protocol. The plates were analyzed in a Multilabel Counter (Bio-Rad Laboratories). Cell viability was also determined by crystal violet staining. Briefly, the cells were stained for 20 min at room temperature with staining solution (0.5% crystal violet in 30% methanol), washed four times with water and then dried. Cells were then dissolved in a Methanol/SDS solution and the adsorbance (595 nm) was read using a microplate ELISA reader.
as §1

M14^S melanoma cells = test: Development of BRAFi-resistant colonies under chronic BRAFi exposure; type: cell-based, human; conditions: miRNA overexpressed, cells exposed chronically to a BRAFi (1 μM vemurafenib) for 28 days; FIG. 16
Description: FIG. 16 M14^S melanoma cells were transfected with the indicated miRNAs for 72 h and then stained with Crystal violet (day 0). The remaining plates were treated with 1 μM vemurafenib every 48 h and then stained after 7, 14, 21 and 28 days. Data are mean±s.d. from three independent experiments. P<0.05. The pictures shown are representative of three independent experiments.
Hereafter, the effects of the DOWNMIRNAs on the development of drug resistance in vitro were determined. […] In contrast, growth of control cells transfected with scrambled-miRNA was initially impaired by the presence of a BRAF inhibitor (from 7 to 21 days of drug exposure), but gave rise to resistant colonies at later times (day 28) (FIG. 16).

[5] = system: human umbilical vein endothelial cells (HUVEC); test: Endothelial tube formation assay on matrigel; type: cell-based
Description: Growth factor reduced Matrigel (10 μL/well) was allowed to polymerize for 1 h on angiogenesis 96 well μ-plates (ibidi, GmbH) at 37° C., 5% CO2. HUVEC (5×10^3 cells/well) suspended in 50 μL of pre-warmed Eagle Basal Medium (CTRL), 10% FBS, or conditioned media from WM266^S, or WM266^R cells, were seeded on matrigel and allowed to form tubes at 37° C. in humidified air with 5% CO2 for 6 h. In order to quantify tube formation, images were acquired and the number of tubes formed by cord-like structures exceeding 100 μm in length were visualized using Axiovision 4.8 software (Carl Zeiss) and counted.
This finding was of particular interest in the light of the known involvement of VEGF in melanoma progression and resistance to therapy (23). […] Of note, for our results only tube-like structures exceeding 100 μm in length were considered. […] As control, 10% FBS employed as a source of angiogenic growth factors, elicited a considerable response rising to 204% over basal (FIG. 24). […] In order to find a correlation between miRNAs deregulation and […]

A375^DR melanoma cells = test: Colony formation / growth of cells double resistant to BRAF and MEK inhibitors; type: cell-based, human; conditions: miRNAs targeted individually; FIG. 18 left
Source text: Data are mean±s.d. from three independent experiments. P<0.05.
Human melanoma cell lines M14 (ATCC® HTB-129™) and A375 (ATCC® CRL-1619™) (both V600E) were from American Type Culture Collection (ATCC®). LOX IMVI (V600E) melanoma cell line (EZT-LOXI-1) was from EZ Byosistems™. WM266 melanoma cell line (V600D)(WM266-4-01-0001) was from ROCKLAND™ antibodies & assays. Resistant melanoma cells were selected by treating them for about two months with increasing drug concentrations every two weeks (from 50 nM to 2 μM). A375^DR cells were selected in the presence of both BRAF and MEK inhibitors, as previously done for M14^R, WM266^R, LOX IMVI^R and A375^R. All human melanoma cell lines used in the present work were cultured in RPMI supplemented with 10% (vol/vol) FBS. Human umbilical vein endothelial cells (HUVEC)s, were employed between the third and the seventh passage, were grown in Eagle Basal Medium (EBM) supplemented with 4% FBS, 0.1% gentamicin, 1 μg/mL hydrocortisone, […] and 12 μg/mL bovine brain extract (Cambrex, Bio Science).
Next, the growth inhibitory effect of simultaneously targeting miRNAs combinations was determined. In detail, for these experiments antagomiRs recognising the UPMIRNAs (amiR-4443: aaaacccacgcctccaa (SEQ ID NO: 10) and amiR-4488: cgccggagcccgccccct (SEQ ID NO: 11)) in different combinations with DOWNMIRNAs mimics (miR-204-5p: […] (SEQ ID NO: 2) and miR-199b-5p […] (SEQ ID NO: 1)) were transiently transfected in melanoma cell lines. […] In addition, the effect of targeting miRNAs individually or in combinations was assessed in a cell line rendered double resistant to both BRAF and MEK inhibitors (called A375^DR). Other investigators have previously reported that double drug resistant melanoma cell lines are more difficult to growth inhibit (5). In fact no growth inhibition was observed effect on A375^DR when the four selected miRNAs were targeted individually (FIG. 18, left panel). […]

Row | Substance | BRAFi induction of apoptosis, measured by Caspase 3/7 activation [3] | effect of BRAFi on cell viability [4] | A375^DR colony formation / growth inhibition (A375^DR melanoma cells) | also measured
1 | miR-199b-5p: miRNA mimic: cccaguguuuagacuaucuguuc (SEQ ID NO:1) (CCCAGUGUUUAGACUAUCUGUUC; listed as RNA, chemistry not given here; listed as Homo sapiens) | potentiates BRAFi activity | potentiates BRAFi activity | not able to affect | VEGF expression (Western Blot) [1]: able to reduce specifically VEGF expression; colony formation [2]: strongly impaired colony formation; apoptosis (Caspase 3/7 activation) [3]: induces apoptosis; cell proliferation [4]: inhibits cell proliferation; ability to form BRAFi-resistant colonies (M14^S melanoma cells): completely lost the ability to form BRAFi-resistant colonies; tube formation induced by CM from transfected WM266^R cells ([5]; conditioned medium of WM266^R cells transfected with the miRNA, FIG. 27): lost the capability to induce tube formation
2 | miR-4443: UPMIRNA, uuggaggcguggguuuu (SEQ ID NO: 10), enforced expression by transient transfection (UUGGAGGCGUGGGUUUU; listed as RNA, chemistry not given here; listed as Homo sapiens) | decreases the effect of BRAFi | decreases the effect of BRAFi |  | 
3 | amiR-4443: antagomiR recognising miR-4443: aaaacccacgcctccaa (antisense AAAACCCACGCCTCCAA; listed as DNA, chemistry not given here) |  |  | not able to affect | 
4 | Avastin: used to inhibit VEGFR activity; called VEGFR inhibitor [reference compound] |  |  |  | tube formation induced by CM from WM266^R melanoma cells ([5]; addition of VEGFR inhibitor, FIG. 25): significantly inhibited
5 | amiR-4488: antagomiR recognising miR-4488: cgccggagcccgccccct (antisense CGCCGGAGCCCGCCCCCT; listed as DNA, chemistry not given here) |  |  | not able to affect | 
6 | miR-4488: UPMIRNA, agggggcgggcuccggcg (SEQ ID NO: 11), enforced expression by transient transfection (AGGGGGCGGGCUCCGGCG; listed as RNA, chemistry not given here; listed as Homo sapiens) | decreases the effect of BRAFi | decreases the effect of BRAFi |  | 
